Assay results as given in ChEMBL document CHEMBL1201862, “PubChem BioAssay data set” (2004).
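The compound was tested at five concentrations on cells cultured in 96-well plates, with a 48-hour exposure period. Here, GI50 denotes the concentration required for 50% inhibition of growth.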 The source made the active and inactive calls. Rule as the data show it: active = GI50 up to about 1.1 µM and inactive = higher.

Assays:
Experiment in all cases: DTP human tumour cell line panel, 48 h
HOP-62 = tested on: HOP-62
MDA-MB-231 = tested on: MDA-MB-231
UACC-62 = tested on: UACC-62
OVCAR-4 = tested on: OVCAR-4
HCT-15 = tested on: HCT-15
K562 = tested on: K562
NCI/ADR-RES = tested on: NCI/ADR-RES
A549 = tested on: A549
OVCAR-3 = tested on: OVCAR-3
HL-60 = tested on: HL-60
Hs-578T = tested on: Hs-578T
OVCAR-8 = tested on: OVCAR-8
OVCAR-5 = tested on: OVCAR-5
IGROV-1 = tested on: IGROV-1
M14 = tested on: M14
SNB-75 = tested on: SNB-75
Malme-3M = tested on: Malme-3M

Row | SMILES | GI50 (HOP-62) | GI50 (MDA-MB-231) | GI50 (UACC-62) | GI50 (OVCAR-4) | GI50 (HCT-15) [µM] | GI50 (K562) | GI50 (NCI/ADR-RES) | GI50 (A549) | GI50 (OVCAR-3) | GI50 (HL-60) | GI50 (Hs-578T) | GI50 (OVCAR-8) | GI50 (OVCAR-5) | GI50 (IGROV-1) | GI50 (M14) | GI50 (SNB-75) | GI50 (Malme-3M)
1 | O=[N+]([O-])c1ccc(C2c3c(O)nc(S)nc3Oc3nc(S)nc(O)c32)cc1 | > 100 µM (inactive) | > 100 µM (inactive) | > 100 µM (inactive) | > 100 µM (inactive) | > 100 | > 100 µM (inactive) | > 100 µM (inactive) | > 100 µM (inactive) | > 100 µM (inactive) | > 100 µM (inactive) | > 100 µM (inactive) | > 100 µM (inactive) | > 100 µM (inactive) | > 100 µM (inactive) | > 100 µM (inactive) |  | 
2 | N#Cc1c2c(c(Nc3ccc(F)cc3)n3c1nc1ccccc13)CCC2 | 3.03 µM (inactive) | 3.61 µM (inactive) | 10.9 µM (inactive) | 10 µM (inactive) | 3.99 | 9.44 µM (inactive) | 5.27 µM (inactive) | 5.93 µM (inactive) | 7.89 µM (inactive) | 3.96 µM (inactive) |  | 2.36 µM (inactive) | 5.02 µM (inactive) | 3.52 µM (inactive) | 5.89 µM (inactive) | 6.18 µM (inactive) | 7.41 µM (inactive)
3 | COc1ccc(/C=C/C(=O)Oc2cc(O)cc(O)c2)cc1 | 17.3 µM (inactive) | 35.7 µM (inactive) | > 100 µM (inactive) | 85.5 µM (inactive) | 16.9 | 22.5 µM (inactive) | 34.4 µM (inactive) | 34.8 µM (inactive) | 18 µM (inactive) | 22 µM (inactive) |  | 28.2 µM (inactive) | > 100 µM (inactive) | 16.5 µM (inactive) | 41.4 µM (inactive) | 38.1 µM (inactive) | 36.6 µM (inactive)
4 | O=[N+]([O-])c1ccc2c(c1)C1=C(CO2)Cc2ccccc2O1 | 64.6 µM (inactive) | 27.4 µM (inactive) | 19.4 µM (inactive) | 36.9 µM (inactive) | 14.3 | 51.4 µM (inactive) | 30.3 µM (inactive) | 42.4 µM (inactive) | 19.8 µM (inactive) |  |  | 33.5 µM (inactive) | 24.5 µM (inactive) | 19.2 µM (inactive) | 20.6 µM (inactive) | > 100 µM (inactive) | 26.4 µM (inactive)
5 | COc1cc2c(cc1O)C(=O)O[C@@H]1CC=C3CCN(C)[C@H]3[C@H]21 | > 25 µM (inactive) | > 25 µM (inactive) | > 25 µM (inactive) | > 25 µM (inactive) | > 25 | > 25 µM (inactive) | > 25 µM (inactive) | > 25 µM (inactive) | > 25 µM (inactive) |  | > 25 µM (inactive) | > 25 µM (inactive) | > 25 µM (inactive) | > 25 µM (inactive) | > 25 µM (inactive) | > 25 µM (inactive) | > 25 µM (inactive)
6 | CNCCCNC(=S)Cn1cc(C)c(=O)[nH]c1=O | > 54.3 µM (inactive) | > 60.4 µM (inactive) | > 47.4 µM (inactive) | > 53.2 µM (inactive) | > 42.7 | > 42.2 µM (inactive) | > 57.8 µM (inactive) | > 29.9 µM (inactive) | > 48.9 µM (inactive) |  | > 35.1 µM (inactive) | > 26.6 µM (inactive) | > 69.5 µM (inactive) | > 39.5 µM (inactive) | > 53 µM (inactive) | > 54.2 µM (inactive) | > 100 µM (inactive)
7 | CO[C@@]12C[C@@H](CNC(=O)c3cc(Br)c[nH]3)O[C@@H]1NC(=O)N2 | > 100 µM (inactive) | > 100 µM (inactive) | > 100 µM (inactive) | > 100 µM (inactive) | > 100 |  | > 100 µM (inactive) | > 100 µM (inactive) | > 100 µM (inactive) |  | > 100 µM (inactive) | > 100 µM (inactive) | > 100 µM (inactive) | > 100 µM (inactive) | > 100 µM (inactive) | > 100 µM (inactive) | > 100 µM (inactive)
8 | O=c1[nH]c(=O)n(COCc2ccccc2)c2ccccc12 |  | 49.2 µM (inactive) | 75 µM (inactive) | 44.3 µM (inactive) | 14 | 45.6 µM (inactive) | 20.5 µM (inactive) | 92.7 µM (inactive) | 87.3 µM (inactive) | 19.9 µM (inactive) |  | 40.9 µM (inactive) | > 100 µM (inactive) | 18.4 µM (inactive) | > 100 µM (inactive) | 13.1 µM (inactive) | 
9 | CC1(C)[C@@H]2CC[C@@]1(C)CN(CCC[N+](C)(C)C)C2 | > 100 µM (inactive) | > 100 µM (inactive) | > 100 µM (inactive) | > 100 µM (inactive) | > 100 | > 100 µM (inactive) | > 100 µM (inactive) | > 100 µM (inactive) | > 100 µM (inactive) |  | > 100 µM (inactive) | > 100 µM (inactive) | > 100 µM (inactive) | > 100 µM (inactive) | > 100 µM (inactive) | > 100 µM (inactive) | > 100 µM (inactive)
10 | S=C(Nc1ccccc1)c1ccc(CN2CCCCC2)s1 | 26.5 µM (inactive) |  | 18.7 µM (inactive) | 35.6 µM (inactive) | 18.3 | 13.8 µM (inactive) | 28.6 µM (inactive) | 29.6 µM (inactive) | 48.6 µM (inactive) | 14.9 µM (inactive) | 25.3 µM (inactive) | 15.6 µM (inactive) | 16.2 µM (inactive) | 24 µM (inactive) | 16 µM (inactive) |  | 21 µM (inactive)
11 | O=[N+]([O-])/C(C(Cl)=C(Cl)Cl)=C1\Nc2ccc([N+](=O)[O-])cc2N1 | > 100 µM (inactive) | 45.2 µM (inactive) | > 100 µM (inactive) | > 100 µM (inactive) | > 100 | > 100 µM (inactive) | > 100 µM (inactive) | > 100 µM (inactive) | > 100 µM (inactive) |  |  |  | > 100 µM (inactive) |  | > 100 µM (inactive) | > 100 µM (inactive) | 63.5 µM (inactive)
12 | Nn1c(CNc2ccc(-c3nnc(Nc4ccc(Cl)cc4)n3N)cc2)nnc1Nc1ccc(Cl)cc1 | 34.1 µM (inactive) | > 100 µM (inactive) | 50.9 µM (inactive) | > 100 µM (inactive) | > 100 | 67.9 µM (inactive) | > 100 µM (inactive) | > 100 µM (inactive) |  |  |  |  | > 100 µM (inactive) | > 100 µM (inactive) | 51.6 µM (inactive) | > 100 µM (inactive) | > 100 µM (inactive)
13 | c1ccc(-c2nc3ccccc3n3c(CN4CCCCC4)nnc23)cc1 | 28.5 µM (inactive) | 60 µM (inactive) | > 100 µM (inactive) | > 100 µM (inactive) | > 100 | > 100 µM (inactive) | > 100 µM (inactive) | > 100 µM (inactive) | > 100 µM (inactive) |  | 69.2 µM (inactive) | 99.3 µM (inactive) | > 100 µM (inactive) | 47.9 µM (inactive) | > 100 µM (inactive) | 19.2 µM (inactive) | > 100 µM (inactive)
14 | N#Cc1c(-c2ccc([N+](=O)[O-])cc2)cc(-c2ccc(Nc3ccnc4cc(C(F)(F)F)ccc34)cc2)nc1N | 21.3 µM (inactive) | 18.9 µM (inactive) | 62.4 µM (inactive) | 7.6 µM (inactive) | 5.96 | 3.64 µM (inactive) | 8.89 µM (inactive) | 13 µM (inactive) | 12.9 µM (inactive) |  | 24.5 µM (inactive) | 20.1 µM (inactive) | 30.9 µM (inactive) | 8.53 µM (inactive) | 11.7 µM (inactive) | 20.4 µM (inactive) | 30.3 µM (inactive)
15 | COC(=O)C12CCCN1CCC2 | > 100 µM (inactive) | > 100 µM (inactive) | > 100 µM (inactive) | > 100 µM (inactive) | > 100 | > 100 µM (inactive) | > 100 µM (inactive) | > 100 µM (inactive) | > 100 µM (inactive) |  |  |  | > 100 µM (inactive) |  | > 100 µM (inactive) | > 100 µM (inactive) | > 100 µM (inactive)
16 | C[P+](c1ccccc1)(c1ccc(Cl)cc1)c1ccc(Cl)cc1 | 19.5 µM (inactive) | 13.2 µM (inactive) | 10.1 µM (inactive) | 13.2 µM (inactive) | 88.9 | 11.2 µM (inactive) | > 100 µM (inactive) | 32.4 µM (inactive) | 0.183 µM (active) |  | 20.7 µM (inactive) | 14.7 µM (inactive) | 18.2 µM (inactive) | 4.94 µM (inactive) | 11.6 µM (inactive) | 14.4 µM (inactive) | 4.19 µM (inactive)
17 | COc1ccc(/N=C2/C(=N/c3ccc(OC)cc3)N(c3ccccc3)C(=S)N2N=C=C2Sc3ccccc3N2C)cc1 | 52.5 µM (inactive) | 25.5 µM (inactive) | > 100 µM (inactive) |  | > 100 | > 100 µM (inactive) | > 100 µM (inactive) | > 100 µM (inactive) | > 100 µM (inactive) |  | > 100 µM (inactive) | > 100 µM (inactive) | > 100 µM (inactive) | > 100 µM (inactive) | 57.4 µM (inactive) |  | > 100 µM (inactive)
18 | CC(=O)OC[C@H]1O[C@@H](O[C@H]2[C@H](OC(C)=O)C=CO[C@@H]2COC(C)=O)C(OC(C)=O)[C@H]2OC(C)(C)O[C@H]21 (stereo partly specified) | > 100 µM (inactive) | > 100 µM (inactive) | > 100 µM (inactive) | > 100 µM (inactive) | > 100 | > 100 µM (inactive) | > 100 µM (inactive) | > 100 µM (inactive) | > 100 µM (inactive) |  | 32.1 µM (inactive) | > 100 µM (inactive) | > 100 µM (inactive) | > 100 µM (inactive) | > 100 µM (inactive) | 30.5 µM (inactive) | > 100 µM (inactive)
